According to the supplement of paper PMC10307832:

compound: O=C(/C=C/c1cccnc1)NCCCCC1CCN(C(=O)c2ccccc2)CC1 [Daporinad] + O=C(c1cc(Cc2n[nH]c(=O)c3ccccc23)ccc1F)N1CCN(C(=O)C2CC2)CC1 [Olaparib] (partner 8 µM); experiment: relative viability (nuclei count vs DMSO), 5 days (fraction); higher = more cells survive; settings: first compound 0.0005 µM
Method in brief: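 Lung cancer cell lines were pin-tool dosed in 1536-well plates on the day after seeding, with either a lone drug or a fixed anchor-drug dose plus five library-drug doses (not always all listed) in √10 steps. Nuclei were counted on 4× images after 5 days. Relative viability is the ratio of treated-well to vehicle-well nuclei counts, with each value a median of duplicate plates.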

Cell Line	relative viability
NCI-H2085	0.673
Calu-6	0.495
HCC-366	0.334
NCI-H1666	0.754
NCI-H647	0.624
LK-2	0.657
NCI-H2087	0.69
NCI-H358	0.556
NCI-H2170	0.56
H3255	0.534
COR-L23	0.156
COR-L 105	0.637
IA-LM	0.798
LOU-NH91	0.874
ChaGo-K-1	0.34
NCI-H1793	0.829
NCI-H2405	0.848
HOP-62	0.258
HCC-44	0.962
A549	0.324
SK-MES-1	0.603
LU99A	0.188

Cell Line	relative viability
BEN	0.827
HARA	0.726
SW 900	0.624
HCC-78	0.531
NCI-H322M	0.547
LCLC-97TM1	0.435
NCI-H2009	0.596
A-427	0.665
NCI-H460	0.399
NCI-H727	0.571
NCI-H1734	0.567
NCI-H520	0.261
NCI-H2347	0.543
SW 1573	0.367
NCI-H1395	0.436
201T	0.802
NCI-H1915	0.265
HCC-827	0.612
LXF-289	0.952
NCI-H23	0.221
NCI-H1299	0.972
NCI-H650	0.358

Cell Line	relative viability
CAL-12T	0.624
NCI-H1651	0.159
EPLC-272H	0.72
NCI-H2228	0.459
NCI-H1792	0.466
NCI-H1355	0.693
NCI-H3122	0.564
NCI-H1437	0.619
NCI-H1755	0.838
NCI-H2023	0.51
HCC-15	0.67
PC-3 [JPC-3]	1.18
EKVX	0.861
LC-2-ad	0.664
NCI-H1648	0.641
NCI-H1975	0.818
SK-LU-1	0.426
ABC-1	1
NCI-H1944	0.407
NCI-H661	0.687
RERF-LC-KJ	0.867

same assay, conditions: first compound 0.001581 µM

Cell Line	relative viability
NCI-H522	0.621
NCI-H2342	0.456
NCI-H838	0.631
NCI-H1650	0.601
EBC-1	0.667
NCI-H1703	0.388
NCI-H1993	1.02
NCI-H441	0.554
PC-14	0.194
LCLC-103H	0.741
NCI-H596	0.562
NCI-H2126	0.953
EMC-BAC-2	0.342
Calu-6	0.433
NCI-H1666	0.644
NCI-H647	0.547
LK-2	0.459
NCI-H2087	0.575
NCI-H358	0.507
NCI-H2170	0.57
H3255	0.58
COR-L23	0.245
COR-L 105	0.66
IA-LM	0.766
LOU-NH91	0.977

Cell Line	relative viability
ChaGo-K-1	0.248
NCI-H1793	0.952
NCI-H2405	0.841
HOP-62	0.287
HCC-44	1.06
A549	0.184
SK-MES-1	0.636
LU99A	0.198
BEN	1.02
HARA	0.425
HCC-78	0.786
NCI-H322M	0.567
LCLC-97TM1	0.322
NCI-H2009	0.58
A-427	0.713
NCI-H460	0.375
NCI-H727	0.682
NCI-H1734	0.443
NCI-H520	0.202
NCI-H2347	0.604
SW 1573	0.312
NCI-H1395	0.471
201T	0.856
NCI-H1915	0.247
HCC-827	0.728

Cell Line	relative viability
LXF-289	1.13
NCI-H23	0.245
NCI-H1299	0.857
NCI-H650	0.462
CAL-12T	0.596
NCI-H1651	0.15
EPLC-272H	0.704
NCI-H2228	0.715
NCI-H1792	0.493
NCI-H1355	0.737
NCI-H3122	0.565
NCI-H1437	0.624
NCI-H1755	0.891
NCI-H2023	0.497
HCC-15	0.642
PC-3 [JPC-3]	1.08
EKVX	0.912
LC-2-ad	0.662
NCI-H1648	0.667
NCI-H1975	0.764
SK-LU-1	0.548
ABC-1	0.82
NCI-H1944	0.393
NCI-H661	0.616
RERF-LC-KJ	0.896

same assay, conditions: first compound 0.005 µM

Cell Line	relative viability
NCI-H522	0.573
NCI-H2342	0.427
NCI-H838	0.482
NCI-H1650	0.431
EBC-1	0.602
NCI-H1703	0.576
NCI-H1993	0.948
NCI-H441	0.344
PC-14	0.168
LCLC-103H	0.697
NCI-H596	0.542
NCI-H2126	0.883
EMC-BAC-2	0.316
NCI-H2085	0.629
Calu-6	0.391
HCC-366	0.189
NCI-H1666	0.669
NCI-H647	0.224
LK-2	0.394
NCI-H2087	0.205
NCI-H358	0.351
NCI-H2170	0.609
H3255	0.526
COR-L23	0.19
COR-L 105	0.61
IA-LM	0.707

Cell Line	relative viability
LOU-NH91	0.803
ChaGo-K-1	0.258
NCI-H1793	0.81
NCI-H2405	0.639
HOP-62	0.188
HCC-44	1.04
A549	0.128
SK-MES-1	0.423
LU99A	0.199
BEN	1.02
HARA	0.466
SW 900	0.572
HCC-78	0.649
NCI-H322M	0.547
LCLC-97TM1	0.201
NCI-H2009	0.268
A-427	0.622
NCI-H460	0.184
NCI-H727	0.623
NCI-H1734	0.327
NCI-H520	0.221
NCI-H2347	0.571
SW 1573	0.323
NCI-H1395	0.432
201T	0.807
NCI-H1915	0.193

Cell Line	relative viability
HCC-827	0.608
LXF-289	0.929
NCI-H23	0.238
NCI-H1299	0.904
NCI-H650	0.346
CAL-12T	0.512
NCI-H1651	0.131
EPLC-272H	0.581
NCI-H2228	0.708
NCI-H1792	0.228
NCI-H1355	0.6
NCI-H3122	0.501
NCI-H1437	0.633
NCI-H1755	0.84
NCI-H2023	0.414
HCC-15	0.467
PC-3 [JPC-3]	1
EKVX	0.788
LC-2-ad	0.441
NCI-H1975	0.728
SK-LU-1	0.394
ABC-1	0.781
NCI-H1944	0.42
NCI-H661	0.665
RERF-LC-KJ	0.82

same assay, conditions: first compound 0.01581 µM

Cell Line	relative viability
NCI-H522	0.49
NCI-H2342	0.367
NCI-H838	0.341
NCI-H1650	0.443
EBC-1	0.49
NCI-H1703	0.41
NCI-H1993	1.05
NCI-H441	0.237
PC-14	0.087
LCLC-103H	0.688
NCI-H596	0.441
NCI-H2126	0.863
EMC-BAC-2	0.235
NCI-H2085	0.629
Calu-6	0.268
HCC-366	0.095
NCI-H1666	0.679
NCI-H647	0.156
LK-2	0.28
NCI-H2087	0.236
NCI-H358	0.293
NCI-H2170	0.337
H3255	0.594
COR-L23	0.155
COR-L 105	0.591
IA-LM	0.475

Cell Line	relative viability
LOU-NH91	0.837
ChaGo-K-1	0.196
NCI-H1793	0.835
NCI-H2405	0.407
HOP-62	0.15
HCC-44	0.985
A549	0.0773
SK-MES-1	0.323
LU99A	0.186
BEN	0.914
HARA	0.28
SW 900	0.375
HCC-78	0.559
NCI-H322M	0.516
LCLC-97TM1	0.122
NCI-H2009	0.219
A-427	0.571
NCI-H460	0.143
NCI-H727	0.539
NCI-H1734	0.241
NCI-H520	0.153
NCI-H2347	0.416
SW 1573	0.274
NCI-H1395	0.425
201T	0.806
NCI-H1915	0.184

Cell Line	relative viability
HCC-827	0.504
LXF-289	0.945
NCI-H23	0.172
NCI-H1299	0.855
NCI-H650	0.285
CAL-12T	0.269
NCI-H1651	0.138
EPLC-272H	0.442
NCI-H2228	0.584
NCI-H1792	0.222
NCI-H1355	0.479
NCI-H3122	0.421
NCI-H1437	0.548
NCI-H1755	0.843
NCI-H2023	0.277
HCC-15	0.35
PC-3 [JPC-3]	1.09
EKVX	0.615
LC-2-ad	0.398
NCI-H1648	0.523
NCI-H1975	0.611
SK-LU-1	0.299
ABC-1	0.582
NCI-H1944	0.386
NCI-H661	0.402
RERF-LC-KJ	0.757
